Data: patent US7973053B2, “Nerve cell death inhibitor” (priority 2007, dated 2011)
Where a name gives a salt, the structure may show the parent alone.

How the values were obtained:
[1] = tested on: nerve cells in the hippocampus CA1 region; experiment: rat model for revascularization of vertebral-carotid artery occlusion (4-point ischemia), nerve cell death in hippocampus CA1; assay type: in vivo; conditions: oral once a day for 6 days
Procedure: Seven-week old Crlj:WI male rats (Charles River Laboratories Japan Inc.) were obtained, and they were provided to the experiment after being subjected to quarantine (for 5 days) and acclimatization (for 7 days or more). Throughout the experimentation period, the rats were bred in a breeding chamber maintained under a light-dark cycle (light period under room light: 6:00 AM to 6:00 PM), at a temperature of 23±3° C. and a humidity of 55±15%, and were allowed to freely take in solid feedstuff (CRF-1; Oriental Yeast Co., Ltd.) and drinking water (tap water).
Pitavastatin and ARICEPT were each suspended in a 0.5% (w/v) aqueous solution of carboxymethylcellulose sodium (hereinafter, CMC-Na, SIGMA), and prepared just before use such that the amount of administration would be 5 mL/kg.
The day of grouping was counted as the first day of administration, and the test drug was orally administered once a day for 6 days, thus 6 times in total. The normal group and the solvent control group were administered with a 0.5% (w/v) aqueous solution of CMC-Na.
On the fifth day of administration, 35 mg/kg of pentobarbital sodium (Nembutal (registered trademark) injectable solution, Dainippon Pharmaceutical Co., Ltd.) was intraperitoneally administered to the rats excluding those in the normal group. The right and left alar foramens were exposed from the first cervical spine part under anesthesia, and the vertebral arteries were thermally solidified using a soldering iron, so as to permanently occlude the vertebral arteries on both sides. […]
The fixated brains were dehydrated, infiltrated and embedded in paraffin, and a section having a thickness 10 μm was produced from the vicinity of Bregma −3.3 mm. […] The number of nerve cells was counted using an image analyzer (Win ROOF V5.6, Mitani Corporation), and the length of CA1 was measured.
According to the following formula, the number of nerve cells per unit length was determined, and the average value and standard deviation were calculated for each group. […]

nerve cells = conditions: pitavastatin 3 mg/kg single administration; Non-Patent Document 9; cited from earlier work

COc1cc2c(cc1OC)C(=O)C(CC1CCN(Cc3ccccc3)CC1)C2 (stereo not shown) [ARICEPT, donepezil hydrochloride]
number of nerve cells in the hippocampus CA1 region (cells/mm) vs solvent control group ([1]; Comparative Example 1, ARICEPT 0.5 mg/kg single administration, FIG. 2): not significant | number of nerve cells in the hippocampus CA1 region (cells/mm) vs solvent control group ([1]; Example 1, ARICEPT 0.5 mg/kg single administration, FIG. 1): not significant

O=C([O-])C[C@H](O)C[C@H](O)/C=C/c1c(C2CC2)nc2ccccc2c1-c1ccc(F)cc1.O=C([O-])C[C@H](O)C[C@H](O)/C=C/c1c(C2CC2)nc2ccccc2c1-c1ccc(F)cc1.[Ca+2] [pitavastatin, pitavastatin calcium]
number of nerve cells in the hippocampus CA1 region (cells/mm) vs solvent control group ([1]; Example 1, pitavastatin 3 mg/kg single administration, FIG. 1): not significant | increase in the number of nerve cells, as reported in the literature (nerve cells): presence of significant difference
